Assay results published in patent US9695155B2, “Herbicidal substituted pyrimidinyloxy benzene compounds” (E. I. DU PONT DE NEMOURS AND COMPANY, priority 2013, dated 2017).

How the values were obtained:
barnyardgrass [1] = test: Test A preemergence; assay type: in vivo, Echinochloa crus-galli; details: for Barnyardgrass plant response rating: 0 to 100 scale, 0 no effect, 100 complete control, approx. 10 days
Outline: (§1)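 Injury scores run from 0, no effect, to 100, complete control, judged by eye against untreated plants roughly 10 days after treatment. Chemicals carried a surfactant in a non-phytotoxic solvent and went onto loam–sand soil preemergence or onto one- to two-leaf seedlings postemergence.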

kochia [2] = test: Test A preemergence; assay type: in vivo, Kochia scoparia; details: for Kochia plant response rating: 0 to 100 scale, 0 no effect, 100 complete control, approx. 10 days
Outline: as §1

ragweed [3] = test: Test A preemergence; assay type: in vivo, Ambrosia elatior; details: for Ragweed plant response rating: 0 to 100 scale, 0 no effect, 100 complete control, approx. 10 days
Outline: as §1

Italian ryegrass [4] = test: Test A preemergence; assay type: in vivo, Lolium multiflorum; details: for Ryegrass, Italian plant response rating: 0 to 100 scale, 0 no effect, 100 complete control, approx. 10 days
Outline: as §1

giant foxtail [5] = test: Test A preemergence; assay type: in vivo, Setaria faberii; details: for Foxtail, Giant plant response rating: 0 to 100 scale, 0 no effect, 100 complete control, approx. 10 days
Outline: as §1

pigweed [6] = test: Test A preemergence; assay type: in vivo, Amaranthus retroflexus; details: for Pigweed plant response rating: 0 to 100 scale, 0 no effect, 100 complete control, approx. 10 days
Outline: as §1

barnyardgrass [7] = test: Test A postemergence; assay type: in vivo, Echinochloa crus-galli
Outline: as §1

kochia [8] = test: Test A postemergence; assay type: in vivo, Kochia scoparia
Excerpt: (§2) Seeds of plant species selected from barnyardgrass (Echinochloa crus-galli), kochia (Kochia scoparia), ragweed (common ragweed, Ambrosia elatior), Italian ryegrass (Lolium multiflorum), large (Lg) crabgrass (Digitaria sanguinalis), giant foxtail (Setaria faberii), morningglory (Ipomoea spp.), pigweed (Amaranthus retroflexus), velvetleaf (Abutilon theophrasti), wheat (Triticum aestivum), and corn (Zea mays) were planted into a blend of loam soil and sand and treated preemergence with a directed soil spray using test chemicals formulated in a non-phytotoxic solvent mixture which included a surfactant.
(§3) At the same time, plants selected from these crop and weed species and also blackgrass (Alopecurus myosuroides), and galium (catchweed bedstraw, Galium aparine) were planted in pots containing the same blend of loam soil and sand and treated with postemergence applications of test chemicals formulated in the same manner. Plants ranged in height from 2 to 10 cm and were in the one- to two-leaf stage for the postemergence treatment. Treated plants and untreated controls were maintained in a greenhouse for approximately 10 days, after which time all treated plants were compared to untreated controls and visually evaluated for injury. Plant response ratings, summarized in Table A, are based on a 0 to 100 scale where 0 is no effect and 100 is complete control. A dash (-) response means no test result.

ragweed [9] = test: Test A postemergence; assay type: in vivo, Ambrosia elatior
Excerpt: as §2, §3

Italian ryegrass [10] = test: Test A postemergence; assay type: in vivo, Lolium multiflorum
Outline: as §1

giant foxtail [11] = test: Test A postemergence; assay type: in vivo, Setaria faberii
Outline: as §1

pigweed [12] = test: Test A postemergence; assay type: in vivo, Amaranthus retroflexus
Outline: as §1

wheat = test: Test A postemergence; assay type: in vivo, Triticum aestivum
Outline: as §1

corn = test: Test A postemergence; assay type: in vivo, Zea mays
Outline: as §1

blackgrass = test: Test A postemergence; assay type: in vivo, Alopecurus myosuroides
Excerpt: as §2, §3

galium = test: Test A postemergence; assay type: in vivo, Galium aparine
Excerpt: as §2, §3

rice = test: Test B flooded paddy test; assay type: in vivo, Oryza sativa; details: Flood, 250 g ai/ha; 0 to 100 scale where 0 is no effect and 100 is complete control
Outline: (§4)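 Compound added straight to paddy water, with pots kept flooded 3 cm above soil, on plants grown to the 2-leaf stage. Visual scoring 0-100 (100 = complete control) against untreated controls after 13 to 15 greenhouse days.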

sedge, umbrella = test: Test B flooded paddy test; assay type: in vivo, Cyperus difformis; details: Flood, 250 g ai/ha; 0 to 100 scale where 0 is no effect and 100 is complete control
Outline: as §4

Heteranthera limosa = test: Test B flooded paddy test; assay type: in vivo; details: Flood, 250 g ai/ha; 0 to 100 scale where 0 is no effect and 100 is complete control
Outline: as §4

barnyardgrass [13] = test: Test B flooded paddy test; assay type: in vivo, Echinochloa crus-galli; details: Flood, 250 g ai/ha; 0 to 100 scale where 0 is no effect and 100 is complete control
Outline: as §4

[14] = 125 g ai/ha, 0 to 100 scale where 0 is no effect and 100 is complete control
[15] = 500 g ai/ha, 0 to 100 scale, 0 no effect, 100 complete control
[16] = 500 g ai/ha, 0 to 100 scale where 0 is no effect and 100 is complete control
[17] = 1000 g ai/ha, 0 to 100 scale, 0 no effect, 100 complete control

Compound: CC(C)(C)c1cnn(-c2c(C#N)cccc2Oc2ncc(Cl)cn2)c1 [Compound 82]
- Plant response rating, Barnyardgrass (barnyardgrass [1]; [14]): 0
- Barnyardgrass plant response rating (barnyardgrass [1]; 500 g ai/ha): 30
- Plant response rating, Kochia (kochia [2]; [14]): 0
- Kochia plant response rating (kochia [2]; 500 g ai/ha): 0
- Plant response rating, Ragweed (ragweed [3]; [14]): 0
- Ragweed plant response rating (ragweed [3]; 500 g ai/ha): 0
- Plant response rating, Ryegrass, Italian (Italian ryegrass [4]; [14]): 0
- Ryegrass, Italian plant response rating (Italian ryegrass [4]; 500 g ai/ha): 0
- Plant response rating, Foxtail, Giant (giant foxtail [5]; [14]): 10
- Foxtail, Giant plant response rating (giant foxtail [5]; 500 g ai/ha): 70
- Plant response rating, Pigweed (pigweed [6]; [14]): 0
- Pigweed plant response rating (pigweed [6]; 500 g ai/ha): 60
- Plant response rating, Barnyardgrass (barnyardgrass [7]; [14]): 0
- Plant response rating, Barnyardgrass (barnyardgrass [7]; [15]): 20
- Plant response rating, Kochia (kochia [8]; [14]): 0
- Plant response rating, Kochia (kochia [8]; [16]): 10
- Plant response rating, Ragweed (ragweed [9]; [14]): 0
- Plant response rating, Ragweed (ragweed [9]; [16]): 10
- Plant response rating, Ryegrass, Italian (Italian ryegrass [10]; [14]): 0
- Plant response rating, Ryegrass, Italian (Italian ryegrass [10]; [16]): 20
- Plant response rating, Foxtail, Giant (giant foxtail [11]; [14]): 0
- Plant response rating, Foxtail, Giant (giant foxtail [11]; [16]): 20
- Plant response rating, Pigweed (pigweed [12]; [14]): 10
- Plant response rating, Pigweed (pigweed [12]; [16]): 40
- Plant response rating, Wheat (wheat; [14]): 0
- Plant response rating, Wheat (wheat; [16]): 30
- Plant response rating, Corn (corn; [14]): 0
- Plant response rating, Corn (corn; [15]): 10
- Plant response rating, Blackgrass (blackgrass; [14]): 10
- Plant response rating, Blackgrass (blackgrass; [15]): 50
- Plant response rating, Galium (galium; [14]): 10
- Plant response rating, Galium (galium; [16]): 20
- Plant response rating, Rice (rice): 0
- Plant response rating, Sedge, Umbrella (sedge, umbrella): 0
- Plant response rating, Ducksalad (Heteranthera limosa): 30
- Plant response rating, Barnyardgrass (barnyardgrass [13]): 0

Compound: CCN(C)C(=O)c1cccc(Oc2ncc(Cl)cn2)c1-n1cc(C(F)(F)F)cn1 [Compound 262]
- Barnyardgrass plant response rating (barnyardgrass [1]; 1000 g ai/ha): 0
- Kochia plant response rating (kochia [2]; 1000 g ai/ha): 20
- Ragweed plant response rating (ragweed [3]; 1000 g ai/ha): 0
- Ryegrass, Italian plant response rating (Italian ryegrass [4]; 1000 g ai/ha): 0
- Foxtail, Giant plant response rating (giant foxtail [5]; 1000 g ai/ha): 50
- Pigweed plant response rating (pigweed [6]; 1000 g ai/ha): 10
- Plant response rating, Barnyardgrass (barnyardgrass [7]; [17]): 10
- Plant response rating, Kochia (kochia [8]; [17]): 30
- Plant response rating, Ragweed (ragweed [9]; [17]): 10
- Plant response rating, Ryegrass, Italian (Italian ryegrass [10]; [17]): 0
- Plant response rating, Foxtail, Giant (giant foxtail [11]; [17]): 10
- Plant response rating, Pigweed (pigweed [12]; [17]): 50
- Plant response rating, Wheat (wheat; [17]): 0
- Plant response rating, Corn (corn; [17]): 0
- Plant response rating, Blackgrass (blackgrass; [17]): 10
- Plant response rating, Galium (galium; [17]): 10

Compound: NC(=O)c1cnn(-c2ccccc2Oc2ncc(Cl)cn2)c1 [Compound 281]
- Barnyardgrass plant response rating (barnyardgrass [1]; 1000 g ai/ha): 0
- Kochia plant response rating (kochia [2]; 1000 g ai/ha): 0
- Ragweed plant response rating (ragweed [3]; 1000 g ai/ha): 30
- Ryegrass, Italian plant response rating (Italian ryegrass [4]; 1000 g ai/ha): 10
- Foxtail, Giant plant response rating (giant foxtail [5]; 1000 g ai/ha): 0
- Pigweed plant response rating (pigweed [6]; 1000 g ai/ha): 60
- Plant response rating, Barnyardgrass (barnyardgrass [7]; [17]): 0
- Plant response rating, Kochia (kochia [8]; [17]): 70
- Plant response rating, Ragweed (ragweed [9]; [17]): 70
- Plant response rating, Ryegrass, Italian (Italian ryegrass [10]; [17]): 0
- Plant response rating, Foxtail, Giant (giant foxtail [11]; [17]): 0
- Plant response rating, Pigweed (pigweed [12]; [17]): 70
- Plant response rating, Wheat (wheat; [17]): 0
- Plant response rating, Corn (corn; [17]): 10
- Plant response rating, Blackgrass (blackgrass; [17]): 0
- Plant response rating, Galium (galium; [17]): 60

Compound: CC(C)(C)NS(=O)(=O)c1cnn(-c2ccccc2Oc2ncc(Cl)cn2)c1 [Compound 283]
- Barnyardgrass plant response rating (barnyardgrass [1]; 1000 g ai/ha): 0
- Kochia plant response rating (kochia [2]; 1000 g ai/ha): 0
- Ragweed plant response rating (ragweed [3]; 1000 g ai/ha): 0
- Ryegrass, Italian plant response rating (Italian ryegrass [4]; 1000 g ai/ha): 0
- Foxtail, Giant plant response rating (giant foxtail [5]; 1000 g ai/ha): 0
- Pigweed plant response rating (pigweed [6]; 1000 g ai/ha): 0
- Plant response rating, Barnyardgrass (barnyardgrass [7]; [17]): 0
- Plant response rating, Kochia (kochia [8]; [17]): 10
- Plant response rating, Ragweed (ragweed [9]; [17]): 20
- Plant response rating, Ryegrass, Italian (Italian ryegrass [10]; [17]): 0
- Plant response rating, Foxtail, Giant (giant foxtail [11]; [17]): 0
- Plant response rating, Pigweed (pigweed [12]; [17]): 20
- Plant response rating, Wheat (wheat; [17]): 0
- Plant response rating, Corn (corn; [17]): 0
- Plant response rating, Blackgrass (blackgrass; [17]): 10
- Plant response rating, Galium (galium; [17]): 30

Compound: C[Si](C)(C)c1cn(-c2c(Br)cccc2Oc2ncc(Cl)cn2)nn1 [Compound 300]
- Barnyardgrass plant response rating (barnyardgrass [1]; 1000 g ai/ha): 20
- Kochia plant response rating (kochia [2]; 1000 g ai/ha): 60
- Ragweed plant response rating (ragweed [3]; 1000 g ai/ha): 0
- Ryegrass, Italian plant response rating (Italian ryegrass [4]; 1000 g ai/ha): 20
- Foxtail, Giant plant response rating (giant foxtail [5]; 1000 g ai/ha): 80
- Pigweed plant response rating (pigweed [6]; 1000 g ai/ha): 100
- Plant response rating, Barnyardgrass (barnyardgrass [7]; [17]): 0
- Plant response rating, Kochia (kochia [8]; [17]): 20
- Plant response rating, Ragweed (ragweed [9]; [17]): 0
- Plant response rating, Ryegrass, Italian (Italian ryegrass [10]; [17]): 0
- Plant response rating, Foxtail, Giant (giant foxtail [11]; [17]): 30
- Plant response rating, Pigweed (pigweed [12]; [17]): 60
- Plant response rating, Wheat (wheat; [17]): 0
- Plant response rating, Corn (corn; [17]): 10
- Plant response rating, Blackgrass (blackgrass; [17]): 0
- Plant response rating, Galium (galium; [17]): 40

Compound: CCOC(=O)c1cn(-c2ccccc2Oc2ncc(Cl)cn2)nn1 [Compound 302]
- Barnyardgrass plant response rating (barnyardgrass [1]; 1000 g ai/ha): 0
- Kochia plant response rating (kochia [2]; 1000 g ai/ha): 0
- Ragweed plant response rating (ragweed [3]; 1000 g ai/ha): 0
- Ryegrass, Italian plant response rating (Italian ryegrass [4]; 1000 g ai/ha): 0
- Foxtail, Giant plant response rating (giant foxtail [5]; 1000 g ai/ha): 0
- Pigweed plant response rating (pigweed [6]; 1000 g ai/ha): 0
- Plant response rating, Barnyardgrass (barnyardgrass [7]; [17]): 0
- Plant response rating, Kochia (kochia [8]; [17]): 0
- Plant response rating, Ragweed (ragweed [9]; [17]): 0
- Plant response rating, Ryegrass, Italian (Italian ryegrass [10]; [17]): 0
- Plant response rating, Foxtail, Giant (giant foxtail [11]; [17]): 0
- Plant response rating, Pigweed (pigweed [12]; [17]): 0
- Plant response rating, Wheat (wheat; [17]): 0
- Plant response rating, Corn (corn; [17]): 0
- Plant response rating, Blackgrass (blackgrass; [17]): 0
- Plant response rating, Galium (galium; [17]): 0
